Structures can show the parent of a compound that is named as a salt. Where two headings read alike, the source gives them in different places.
Tested on: Zymosan Stimulated Macrophaqes
Experiment: Test A: Inhibition of Arachidonic Acid Release from Zymosan Stimulated Macrophages
Type: cell-based, mouse (female MF1)
Conditions: inhibition of arachidonic acid release, six concentrations (100, 50, 20, 10, 5 and 1 μM), 5 h with zymosan, read-out: Test A IC50
Description: Inhibition of Arachidonic Acid Release from Zymosan Stimulated Macrophaqes
Female MF1 mice (weighing 20 to 25 g) were killed using a rising concentration of CO2. The mice were laid on their backs and the abdomens wiped with 70% alcohol. The skin was pulled back, exposing the peritoneal wall. Medium A (5 ml) (see below) was injected into the peritoneal cavity of each mouse followed by approximately 1 ml of air using a 20 ml syringe and a 21 G×40 mm needle in order to form a suspension of macrophage cells. The medium and cells were then removed using a 19 G×40 mm needle. The resulting suspension was returned to a sterile beaker kept on ice. The extracts from all the mice were pooled and this pooled cell suspension was counted using a Coulter counter and adjusted to a final cell count of 1-1.3×10^6 cells/ml prior to labelling with [^3 H]-arachidonic acid. Typically five mice provided sufficient cells for each multiwell plate.
Sufficient [^3 H]-arachidonic acid in ethanol to give a final concentration of 1.6 μCi/ml (equivalent to 40 μCi/plate) was blown to dryness under nitrogen. The arachidonic acid was then resuspended in 1 or 2 ml of the cell suspension which was then mixed with the remainder of the cell suspension in a centrifuge bottle. The labelled cell suspension was then plated out into sterile plastic 96 flat-bottomed well plates (250 μl per well) and incubated overnight at 37° C. in a moist atmosphere of 5% CO2, 95% air.
The following day, non-adherent cells were removed by washing 3 times with sterile phosphate buffered saline (PBS). The adherent peritoneal macrophages were then cultured for a further 24 hours in the presence or absence of drugs, in medium B (see below) at 37° in a 5% CO2 atmosphere in order to measure the effects of drugs on the spontaneous release of arachidonic acid in the absence of stimulus. After this incubation, supernatants were removed to give media 1 and stored in sealed multi-well plates at 4° C. prior to scintillation counting. Drugs which potentiated spontaneous release of arachidonic acid (125% of controls) were deemed to be toxic at the concentration at which this phenomenon occurred. The supernatants were replaced by fresh medium C containing fresh drug and a stimulus. Three drugs were tested at six concentrations (100, 50, 20, 10, 5 and 1 μM) in replicates of four on each plate. The other wells contained controls consisting of a positive control (e.g. dexamethasone), medium (B) only and medium C only.
Incubation was then continued for a further 5 hours, whereupon the supernatants were collected to give media 2 and the adherent cells washed with PBS. The cells were then lysed with 100 μl of 0.1% TRITON® X100 in a 0.1% solution of bovine serum albumin in 0.9% saline and mechanically disrupted to give cell lysates. These supernatants (media 2) and cell lysates (Cells) were also stored in sealed multi-well plates at 4° C. prior to scintillation counting. 200 μl aliquots of media, or 100 μl aliquots of cells were counted using 2 ml of OPTIPHASE "HIGH SAFE" (Trademark of LKB) as scintillant.
The percentage of arachidonic acid released was calculated using the mean values for each group of 4 wells in the following equation. [formula] cpm=courts per minute
The value for the arachidonic acid release in the absence of stimulus (spontaneous, cpm of media 2) from cells which had been exposed to neither stimulus nor drug was subtracted from all equivalent values (cpm media 2, stimulated with or without drug) to give the net stimulated release. The percentage inhibition of arachidonic acid release caused by a drug may then be calculated using the following equation. [formula]
Compounds of formula I were tested at six concentrations (100, 50, 20, 10, 5 and 1 μM) and IC50 values calculated. Compounds with IC50 values<100 μM are considered to be active. Advantageous compounds have an IC50 value <50 μM.
Medium A (for peritoneal lavage) […]

Row | Compound | IC50 (Mus musculus, Macrophage, 5 h) [µM] | also measured
1 | A mixture of N-[1-(4-chlorophenyl)-1-methylethyl]-3-(4-methylimidazol-1-yl)propylamine and N-[1-(4-chlorophenyl)-1-methylethyl]-3-(5-methylimidazol-1-yl)propylamine [Example 69] |  | IC50: 11 µM
2 | CC(C)(NCCCn1cnc(CO)c1)c1ccc(Cl)cc1 [Example 79, 1-{3-[1-(4-Chlorophenyl)-1-methylethylamino]propyl}imidazol-4-yl-methanol] | 85 | 
3 | CCC(CC)(NCCCn1cnc(CO)c1)c1ccccc1 [Example 86, 1-[3-(1-ethyl-1-phenylpropylamino)propyl]imidazol-4-yl-methanol] | 78 | 
4 | CC(NCCCn1ccnc1)c1ccc(F)cc1 (stereo not drawn) [Example 4, N-[1-(4-Fluorophenyl)ethyl]-3-(imidazol-1-yl)propylamine] | 95 | 
5 | Clc1ccc(CNCCCCn2ccnc2)cc1 [Example 46, N-(4-Chlorobenzyl)-4-(imidazol-1-yl)butylamine dihydrochloride] | 86 | 
6 | CC(C)(NCCCn1ccnc1)c1ccc(Cl)cc1 [Example 100, N-[1-(4-chlorophenyl)-1-methylethyl]-3-(imidazol-1-yl)propylamine (+)tartrate dihydrate] |  | IC50 (dihydrate): 20 µM
7 | CCOC(=O)c1ccc(C(C)NCCCn2ccnc2)cc1 (stereo not drawn) [Example 20, Ethyl 4-{1-[3-(imidazol-1-yl)propylamino]ethyl}benzoate] | 70 | 
8 | CC(NCCCn1ccnc1)c1cc(Cl)ccc1Cl (stereo not drawn) [Example 15, N-[1-(2,5-Dichlorophenyl)ethyl]-3-(imidazol-1-yl)propylamine] | 72 | 
9 | CC(C)(NCCCn1cnc([N+](=O)[O-])c1)c1ccc(Cl)cc1 [Example 74, N-[1-(4-Chlorophenyl)-1-methylethyl]-3-(4-nitroimidazol-1-yl)propylamine] | 70 | 
10 | CC(C)(CNCc1ccc(Cl)cc1)Cn1ccnc1 [Example 61, N-(4-chlorobenzyl)-3-(imidazol-1-yl)-2,2-dimethylpropylamine] | 70 | 
11 | FC(F)(F)c1ccc(CNCCCn2ccnc2)cc1 [Example 37, 3-(Imidazol-1-yl)-N-(4-trifluoromethylbenzyl)propylamine dihydrochloride] | 75 | 
12 | CCc1ccc(C(C)NCCCn2ccnc2)cc1 (stereo not drawn) [Example 21, N-[1-(4-Ethylphenyl)ethyl]-3-(imidazol-1-yl)propylamine hemioxalate] | 65 | 
13 | CC(C)(NCCCn1ccnc1)c1ccc(Cl)cc1 [Example 99, N-[1-(4-chlorophenyl)-1-methylethyl]-3-(imidazol-1-yl)propylamine citrate] |  | IC50 (citrate): 14 µM
14 | Brc1ccc(CNCCCn2ccnc2)cc1 [Example 36, N-(4-Bromobenzyl)-3-(imidazol-1-yl)propylamine] | 90 | 
15 | COc1cc(Cl)ccc1C(C)NCCCn1ccnc1 (stereo not drawn) [Example 17, N-[1-(4-Chloro-2-methoxyphenyl)ethyl]-3-(imidazol-1-yl)propylamine] | 90 | 
16 | CN(CCCn1ccnc1)C(C)(C)c1ccc(Cl)cc1 [Example 96, N-[1-(4-chlorophenyl)-1-methylethyl]-3-(imidazol-1-yl)-N-methylpropylamine] | 75 | 
17 | CC(NCCCn1ccnc1)c1ccc(N(C)C)cc1 (stereo not drawn) [Example 6, N-[1-(4-Dimethylaminophenyl)ethyl]-3-(imidazol-1-yl)-propylamine] | 92 | 
18 | FC(F)(F)Oc1ccc(CNCCCn2ccnc2)cc1 [Example 38, 3-(Imidazol-1-yl)-N-(4-trifluoromethoxybenzyl)propylamine dihydrochloride] | 80 | 

The next lines start with results.

Row | IC50 (Mus musculus, Macrophage, 5 h) [µM] | Compound | also measured
19 | 15 | Cc1cn(CCCNCc2ccc(Cl)cc2)c(-c2ccccc2)n1 [Example 48, N-(4-chlorobenzyl)-3-(4-methyl-2-phenylimidazol-1-yl)propylamine] | 
20 | 51 | CCC(CC)(NCCCn1cnc(COC(C)=O)c1)c1ccccc1 [Example 103, 1-[3-(α,α-diethylbenzylamino)propyl]imidazol-4-ylmethyl acetate] | 
21 | 8 | Cc1cn(CCCNCc2ccc(Cl)cc2)c(C)n1 [Example 42, N-(4-chlorobenzyl)-3-(2,4-dimethylimidazol-1-yl)propylamine dihydrochloride] | 
22 | 7 | CC(C)(NCCCCCCCCn1ccnc1)c1ccc(Cl)cc1 [Example 63, N-[1-(4-chlorophenyl)-1-methylethyl]-8-(imidazol-1-yl)octylamine] | 
23 | 20 | CCCOC(=O)c1ccc(CNCCCn2ccnc2C)cc1 [Example 94, propyl 4-[3-(2-methylimidazol-1-yl)propylaminomethyl]benzoate] | 
24 | 60 | Cc1nccn1CCCN(C)Cc1ccc(Cl)cc1 [Example 97, N-(4-chlorobenzyl)-N-methyl-3-(2-methylimidazol-1-yl)propylamine] | 
25 | 12 | CC(C)(NCCCn1ccnc1)c1ccc(OCc2ccccc2)cc1 [Example 87, N-[1-(4-Benzyloxyphenyl)-1-methylethyl]-3-(imidazol-1-yl)propylaminedihydrochloride] | 
26 | 62 | CC(c1ccc(Cl)cc1)N(C)CCCn1ccnc1 (stereo not drawn) [Example 90, N-[1-(4-chlorophenyl)ethyl]-3-(imidazol-1-yl)-N-methylpropylamine] | 
27 | 50 | CCOc1cc(Cl)ccc1C(C)NCCCn1ccnc1 (stereo not drawn) [Example 18, N-[1-(4-Chloro-2-ethoxyphenyl)ethyl]-3-(imidazol-1-yl)propylamine] | 
28 | 60 | CC(NCCCn1ccnc1)c1ccc(Cl)c(Cl)c1 (stereo not drawn) [Example 3, N-[1-(3,4-Dichlorophenyl)ethyl]-3-(imidazol-1-yl)propylamine] | 
29 | 14 | CC(C)(NCCCn1ccnc1)c1ccc(-c2ccccc2)cc1 [Example 81, N-[1-(4-Biphenylyl)-1-methylethyl]-3-(imidazol-1-yl)propylamine dihydrochloride] | 
30 | 28 | CC(C)(NCCCn1ccnc1)c1ccc2ccccc2c1 [Example 83, N-[1-(2-Naphthyl)-1-methylethyl]-3-(imidazol-1-yl)propylamine dihydrochloride hemihydrate] | 
31 | 36 | Cc1cc(C(C)NCCCn2ccnc2)ccc1Cl (stereo not drawn) [Example 12, N-[1-(4-Chloro-3-methylphenyl)ethyl]-3-(imidazol-1-yl)propylamine] | 
32 | 22 | CC(NCCCn1ccnc1)c1ccc(OC(F)(F)F)cc1 (stereo not drawn) [Example 23, 3-(Imidazol-1-yl)-N-[1-(4-trifluoromethoxyphenyl)ethyl]propylamine sesquicitrate] | 
33 | 4 | Cc1nccn1CCCCCNCc1ccc(Cl)cc1 [Example 95, N-(4-chlorobenzyl)-5-(2-methylimidazol-1-yl)pentylamine] | 

Reference: patent US5547972A, “Therapeutic agents useful for treating inflammatory diseases” (The Boots Company PLC, priority 1991, dated 1996)
